Measurements taken from patent US20240158412A1 (Faxian Therapeutics, LLC, priority 2021, published 2024).

molecular target: USP7 (Homo sapiens, UniProt Q93009); experiment: biochemical
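Further: fluorescence intensity readout of USP7 enzymatic activity, reaction incubated 90 min at room temperature.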

USP7, sequence (Q93009 whole entry): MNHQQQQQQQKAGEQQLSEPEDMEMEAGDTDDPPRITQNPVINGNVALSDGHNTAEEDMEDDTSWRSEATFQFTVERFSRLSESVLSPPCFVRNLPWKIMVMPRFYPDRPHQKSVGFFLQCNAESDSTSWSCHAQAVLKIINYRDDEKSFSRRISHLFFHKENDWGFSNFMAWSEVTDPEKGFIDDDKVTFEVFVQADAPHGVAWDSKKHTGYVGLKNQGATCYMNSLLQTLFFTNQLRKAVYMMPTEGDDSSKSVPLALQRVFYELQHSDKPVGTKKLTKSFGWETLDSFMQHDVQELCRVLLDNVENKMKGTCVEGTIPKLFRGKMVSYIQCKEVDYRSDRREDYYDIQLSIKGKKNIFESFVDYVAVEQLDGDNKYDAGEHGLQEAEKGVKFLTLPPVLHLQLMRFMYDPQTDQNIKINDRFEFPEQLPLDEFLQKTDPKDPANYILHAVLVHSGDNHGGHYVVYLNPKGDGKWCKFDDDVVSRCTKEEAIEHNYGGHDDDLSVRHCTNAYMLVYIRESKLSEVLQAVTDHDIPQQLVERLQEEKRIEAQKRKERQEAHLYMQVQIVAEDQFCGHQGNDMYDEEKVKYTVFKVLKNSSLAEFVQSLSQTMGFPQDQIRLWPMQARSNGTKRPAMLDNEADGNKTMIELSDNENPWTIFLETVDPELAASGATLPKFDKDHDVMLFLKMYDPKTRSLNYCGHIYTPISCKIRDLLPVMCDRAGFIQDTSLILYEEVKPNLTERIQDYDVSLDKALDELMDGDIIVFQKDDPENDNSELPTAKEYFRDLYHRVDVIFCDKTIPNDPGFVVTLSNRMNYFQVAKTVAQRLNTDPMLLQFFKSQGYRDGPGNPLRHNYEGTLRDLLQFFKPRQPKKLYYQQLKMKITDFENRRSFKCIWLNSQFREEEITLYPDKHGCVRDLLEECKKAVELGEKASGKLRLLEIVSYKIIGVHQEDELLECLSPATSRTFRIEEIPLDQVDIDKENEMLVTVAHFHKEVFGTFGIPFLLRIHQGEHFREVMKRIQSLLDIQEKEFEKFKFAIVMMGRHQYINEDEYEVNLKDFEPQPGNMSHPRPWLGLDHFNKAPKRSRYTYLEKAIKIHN

Row | SMILES | IC50 [µM]
1 | O=c1ccn(C2CC2)c(=O)n1Cc1cc2nccc(-c3cc(C(F)(F)F)cc4c3N(C3CNC5(CCC5)C3)CCC4)c2s1 (single isomer, unassigned) [Example 162b] | 0.101 to 1
2 | Cc1cnn(Cc2cc3nccc(-c4cc(C#N)cc5c4N(C4CNC6(CCC6)C4)CCC5)c3s2)c(=O)c1 (single isomer, unassigned) [Example 164a] | < 0.01
3 | Cc1cnn(Cc2cc3nccc(-c4cc(C#N)cc5c4N(C4CNC6(CCC6)C4)CCC5)c3s2)c(=O)c1 (single isomer, unassigned) [Example 164b] | 0.101 to 1
4 | O=C1CCC(=O)N1Cc1cc2nccc(-c3cc(Cl)cc4c3N(C3CNC5(CCC5)C3)CCO4)c2s1 (single isomer, unassigned) [Example 171a] | 0.101 to 1
5 | O=C1CCC(=O)N1Cc1cc2nccc(-c3cc(Cl)cc4c3N(C3CNC5(CCC5)C3)CCO4)c2s1 (single isomer, unassigned) [Example 171b] | < 0.01
6 | O=C1CCC(=O)N1Cc1cc2nccc(-c3cc(Cl)cc4c3N(C3CNC5(CCC5)C3)C(=O)CO4)c2s1 (single isomer, unassigned) [Example 173a] | 0.01 to 0.1
7 | O=C1CCC(=O)N1Cc1cc2nccc(-c3cc(Cl)cc4c3N(C3CNC5(CCC5)C3)C(=O)CO4)c2s1 (single isomer, unassigned) [Example 173b] | 0.101 to 1
8 | O=C1CCC(=O)N1Cc1cc2nccc(-c3cc(C(F)(F)F)cc4c3N(C3CNC5(CCC5)C3)CCO4)c2s1 (single isomer, unassigned) [Example 175a] | 0.101 to 1
9 | O=C1CCC(=O)N1Cc1cc2nccc(-c3cc(C(F)(F)F)cc4c3N(C3CNC5(CCC5)C3)CCO4)c2s1 (single isomer, unassigned) [Example 175b] | < 0.01
10 | Cc1ccnn(Cc2cc3nccc(-c4cc(C(F)(F)F)cc5c4N(C4CNC6(CCC6)C4)CCO5)c3s2)c1=O (single isomer, unassigned) [Example 176a] | 0.101 to 1
11 | O=C1CCC(=O)N1Cc1cc2nccc(-c3cc(Cl)cc4c3N(C3CNC5(CC(F)C5)C3)CCC4)c2s1 (single isomer, unassigned) [Example 177a] | < 0.01
12 | O=C1CCC(=O)N1Cc1cc2nccc(-c3cc(Cl)cc4c3N([C@@H]3CCC5(CCCN5)C3)CCC4)c2s1 (single isomer, unassigned) [Example 179a] | 0.01 to 0.1
13 | O=C1CCC(=O)N1Cc1cc2nccc(-c3cc(Cl)cc4c3N([C@@H]3CC[C@@]5(CCCN5)C3)CCC4)c2s1 (single isomer, unassigned) [Example 179b] | 0.01 to 0.1
14 | O=C1CCC(=O)N1Cc1cc2nccc(-c3cc(Cl)cc4c3N([C@@H]3CNC(CO)(CO)C3)CCC4)c2s1 (single isomer, unassigned) [Example 181a] | < 0.01
15 | O=C1CCC(=O)N1Cc1cc2nccc(-c3cc(Cl)cc4c3N([C@H]3CNC(CO)(CO)C3)CCC4)c2s1 (single isomer, unassigned) [Example 181b] | 0.01 to 0.1
16 | CC(C)(C)c1cnn(Cc2cc3nccc(-c4cc(C#N)cc5c4N([C@@H]4CN[C@@H](CO)C4)C[C@H]4C[C@@H]54)c3s2)c(=O)c1 (single isomer, unassigned) [Example 192a] | < 0.01
17 | CC(C)(C)c1cnn(Cc2cc3nccc(-c4cc(C#N)cc5c4N([C@@H]4CN[C@@H](CO)C4)C[C@@H]4C[C@H]54)c3s2)c(=O)c1 (single isomer, unassigned) [Example 192b] | < 0.01

Row | SMILES | IC50 [µM]
18 | CC(C)(C)c1cnn(Cc2cc3nccc(-c4cc(C#N)cc5c4N([C@H]4CN[C@@H](CO)C4)C[C@@H]4C[C@H]54)c3s2)c(=O)c1 (single isomer, unassigned) [Example 193a] | > 1
19 | CC(C)(C)c1cnn(Cc2cc3nccc(-c4cc(C#N)cc5c4N([C@H]4CN[C@@H](CO)C4)C[C@H]4C[C@@H]54)c3s2)c(=O)c1 (single isomer, unassigned) [Example 193b] | 0.01 to 0.1
20 | CC1(c2cnn(Cc3cc4nccc(-c5cc(C#N)cc6c5N([C@@H]5CN[C@@H](CO)C5)C[C@H]5C[C@@H]65)c4s3)c(=O)c2)CC1 (single isomer, unassigned) [Example 195a] | < 0.01
21 | CC1(c2cnn(Cc3cc4nccc(-c5cc(C#N)cc6c5N([C@@H]5CN[C@@H](CO)C5)C[C@@H]5C[C@H]65)c4s3)c(=O)c2)CC1 (single isomer, unassigned) [Example 195b] | < 0.01
22 | COC(=O)[C@@]1(C)C[C@@H](N2CCCc3cc(Cl)cc(-c4ccnc5cc(CN6C(=O)CCC6=O)sc45)c32)CN1 (single isomer, unassigned) [Example 201] | 0.101 to 1
23 | COC(=O)[C@]1(C)C[C@@H](N2CCCc3cc(Cl)cc(-c4ccnc5cc(CN6C(=O)CCC6=O)sc45)c32)CN1 (single isomer, unassigned) [Example 202] | 0.01 to 0.1
24 | COC(=O)[C@@]1(C)C[C@H](N2CCCc3cc(Cl)cc(-c4ccnc5cc(CN6C(=O)CCC6=O)sc45)c32)CN1 (single isomer, unassigned) [Example 203] | < 0.01
25 | COC(=O)[C@]1(C)C[C@H](N2CCCc3cc(Cl)cc(-c4ccnc5cc(CN6C(=O)CCC6=O)sc45)c32)CN1 (single isomer, unassigned) [Example 204] | 0.101 to 1
26 | O=C1C2CC2C(=O)N1Cc1cc2nccc(-c3cc(Cl)cc4c3N([C@H]3CNC(CO)(CO)C3)CCO4)c2s1 (single isomer, unassigned) [Example 212a] | < 0.01
27 | O=C1C2CC2C(=O)N1Cc1cc2nccc(-c3cc(Cl)cc4c3N([C@@H]3CNC(CO)(CO)C3)CCO4)c2s1 (single isomer, unassigned) [Example 212b] | 0.01 to 0.1
28 | O=C1CCC(=O)N1Cc1cc2nccc(-c3cc(Cl)cc4c3N([C@H]3CO[C@@H](CO)C3)CCO4)c2s1 (single isomer, unassigned) [Example 227a] | > 1
29 | O=C1CCC(=O)N1Cc1cc2nccc(-c3cc(Cl)cc4c3N([C@H]3CO[C@H](CO)C3)CCO4)c2s1 (single isomer, unassigned) [Example 227b] | 0.101 to 1
30 | O=C1CCC(=O)N1Cc1cc2nccc(-c3cc(Cl)cc4c3N(C3CO[C@@H](CO)C3)CCO4)c2s1 (single isomer, unassigned) [Example 227c] | > 1
31 | O=C1CCC(=O)N1Cc1cc2nccc(-c3cc(Cl)cc4c3C3(CCC4)CNCCO3)c2s1 (single isomer, unassigned) [Example 229a] | 0.01 to 0.1
32 | O=C1CCC(=O)N1Cc1cc2nccc(-c3cc(Cl)cc4c3C3(CCC4)CNCCO3)c2s1 (single isomer, unassigned) [Example 229b] | > 1
33 | O=c1ccn(CC(F)F)c(=O)n1Cc1cc2nccc(-c3cc(Cl)cc4c3N(C3CCNC3)C[C@H]3C[C@@H]43)c2s1 (stereo in doubt) [Example 115, 3-[[7-[(1aS,3R,7bR)-6-chloro-3-pyrrolidin-3-yl-1,1a,2,7b-tetrahydrocyclopropa[c]quinolin-4-yl]thieno[3,2-b]pyridin-2-yl]methyl]-1-(2,2-difluoroethyl)pyrimidine-2,4-dione] | < 0.01
34 | Cn1ccc(=O)n(Cc2cc3nccc(-c4cc(C#N)cc5c4N(C4CNC(C)(C)C4)CCC5)c3s2)c1=O (stereo in doubt) [Example 121, (S)-1-(5,5-dimethylpyrrolidin-3-yl)-8-(2-((3-methyl-2,6-dioxo-3,6-dihydropyrimidin-1(2H)-yl)methyl)thieno[3,2-b]pyridin-7-yl)-1,2,3,4-tetrahydroquinoline-6-carbonitrile] | < 0.01
